Measured values from patent US20120053165A1, “Novel Phenyl Imidazoles and Phenyl Triazoles As Gamma-Secretase Modulators” (Pfizer Inc., priority 2009, published 2012).
Structures can show the parent of a compound that is named as a salt. Where two headings read alike, the source gives them in different places.

System: production of amyloid beta protein Aβ(1-42) in human WT-APP overexpressing CHO cells
[1] = read-out: Aβ 42 IC50, Geometric mean of 2-8 determinations, human WT-APP overexpressing CHO cells
[2] = Homo sapiens, CHO, read-out: Aβ 42 IC50, Single IC50 determination, human WT-APP overexpressing CHO cells
[3] = Homo sapiens, CHO, read-out: Aβ 42 IC50, Geometric mean of 2-8 determinations, human WT-APP overexpressing CHO cells
[4] = Homo sapiens, CHO, read-out: Aβ 42 IC50
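Note: Aβ(1-42) released into conditioned medium captured by ELISA after roughly 24 h compound exposure, vehicle and inhibitor controls defining maximal and minimal inhibition.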

Protocol: Cell-Based γ-Secretase Assay with ELISA Readout
The ability of compounds to modulate production of amyloid beta protein Aβ(1-42) was determined using human WT-APP overexpressing CHO cells. Cells were plated at 22,000 cells/100 μL well in 96 well tissue culture treated, clear plates (Falcon) in DMEM/F12 based medium and incubated for 24 hours at 37° C. […] Compounds were added in fresh medium to achieve 1% final DMSO. Appropriate vehicle and inhibitor controls were added to obtain maximum and minimum inhibition values for the assay before the plates were incubated for about 24 hours at 37° C.
Coating of ELISA assay plates was initiated by addition of 50 μL/well of an in house Aβ(1-42) specific antibody at (4 μg/mL) in 0.1 M NaHCO3 (pH 9.0) into black 384-well Maxisorp® plates (Nunc) and incubated overnight at 4° C. […] Ambient temperature incubation was allowed to proceed for a minimum of two hours before washing 2×100 μL with Wash Buffer (Dulbecco's PBS, 0.05% Tween 20). Assay Buffer (Dulbecco's PBS, 1.0% BSA (Sigma A7030), 0.05% Tween 20) 20 μL/well is then added.
After incubation overnight at 37° C., 5% CO2, 40 μL (in duplicate) of experimental conditioned media are transferred into wells of the blocked ELISA plates containing the capture antibody, followed by overnight incubation at 4° C.
After overnight incubation of the ELISA assay plates at 4° C., unbound Aβ peptides were removed thorough (4×100 μL) washes with Wash Buffer.

`COc1cc(C(=O)NCC(CO)c2cccc(C(F)(F)F)c2)ccc1-n1cnc(C)c1` (stereo not drawn) [Example 35, N-{3-hydroxy-2-[3-(trifluoro-methyl)phenyl]propyl}-3-methoxy-4-(4-methyl-1H-imidazol-1-yl) benzamide] showed an IC50 [1] of 910 nM.

Work on `COc1cc(C(=O)NCC2(c3ccc(Cl)cc3)CCCC2)ccc1-n1cnc(C)c1` [Example 36, N-{[1-(4-chlorophenyl)cyclopentyl]methyl}-3-methoxy-4-(4-methyl-1H-imidazol-1-yl) benzamide] yielded an IC50 [1] of 209 nM.

Compound `COc1cc(C(=O)NCCc2nc3ccc(Cl)cc3o2)ccc1-n1cnc(C)c1` [Example 38, N-[2-(6-chloro-1,3-benzoxazol-2-yl)ethyl]-3-methoxy-4-(4-methyl-1H-imidazol-1-yl) benzamide] has an IC50 [1] of 354 nM.

`COc1cc(C(=O)NCC2(c3ccc(Br)cc3)CC2)ccc1-n1cnc(C)c1` [Example 39, N-{[1-(4-bromophenyl)cyclopropyl]methyl}-3-methoxy-4-(4-methyl-1H-imidazol-1-yl) benzamide] showed an IC50 (read-out: Aβ 42 IC50, Single IC50 determination, human WT-APP overexpressing CHO cells) of 248 nM.

With `COc1cc(C(=O)NCC2C3CC4CC(C3)CC2C4)ccc1-n1cnc(C)c1` (stereo not drawn) [Example 40, N-(adamantan-2-ylmethyl)-3-methoxy-4-(4-methyl-1H-imidazol-1-yl)benzamide] the IC50 [2] was 185 nM.

`COc1cc(C(=O)NC(c2ccc(F)cc2)c2cccs2)ccc1-n1cnc(C)c1` (stereo not drawn) [Example 41, N-[(4-fluoro-phenyl)(2-thienyl)methyl]-3-methoxy-4-(4-methyl-1H-imidazol-1-yl)benzamide, trifluoroacetic acid salt] was tested, and the IC50 [3] was 328 nM.

Work on `COc1cc(C(=O)NCc2cccc(C(=O)c3ccccc3)c2)ccc1-n1cnc(C)c1` [Example 42, N-(3-benzoyl-benzyl)-3-methoxy-4-(4-methyl-1H-imidazol-1-yl) benzamide] yielded an IC50 [1] of 316 nM.

`COc1cc(C(=O)NCc2ccc(C(=O)c3ccccc3)cc2)ccc1-n1cnc(C)c1` [Example 43, N-(4-benzoyl-benzyl)-3-methoxy-4-(4-methyl-1H-imidazol-1-yl) benzamide] gave an IC50 [1] of 582 nM.

`COc1cc(C(=O)NCc2csc(-c3cccs3)n2)ccc1-n1cnc(C)c1` [Example 44, 3-methoxy-4-(4-methyl-1H-imidazol-1-yl)-N-{[2-(2-thienyl)-1,3-thiazol-4-yl]methyl} benzamide] gave an IC50 [1] of 575 nM.

`COc1cc(C(=O)NCc2nc(-c3ccc(Cl)cc3)no2)ccc1-n1cnc(C)c1` [Example 45, N-{[3-(4-chlorophenyl)-1,2,4-oxadiazol-5-yl]methyl}-3-methoxy-4-(4-methyl-1H-imidazol-1-yl) benzamide, formic acid salt] showed an IC50 [1] of 730 nM.

Compound `COc1cc(C(=O)NCC2CCCC2)ccc1-n1cnc(C)c1` [Example 47, N-cyclopentyl-methyl-3-methoxy-4-(4-methyl-imidazol-1-yl)-benzamide] has an IC50 [1] of 1200 nM.

`COc1cc(C(=O)N[C@@H]2COC[C@@H]2Oc2ccc(Br)cc2)ccc1-n1cnc(C)c1` [Example 48, N-[(3R,4R)-4-(4-bromophenoxy)-tetrahydro-furan-3-yl]-3-methoxy-4-(4-methylimidazol-1-yl)benzamide] gave an IC50 [3] of 1740 nM.

With `COc1cc(C(=O)NCc2ccc(-c3ccc(Cl)cc3)s2)ccc1-n1cnc(C)c1` [Example 49, N-{[5-(4-chlorophenyl)-2-thienyl]methyl}-3-methoxy-4-(4-methyl-1H-imidazol-1-yl) benzamide] the IC50 [1] was 137 nM.

With `COc1cc(C(=O)NCc2csc(-c3ccc(C(F)(F)F)cc3)n2)ccc1-n1cnc(C)c1` [Example 50, 3-methoxy-4-(4-methyl-1H-imidazol-1-yl)-N-({2-[4-(trifluoromethyl)phenyl]-1,3-thiazol-4-yl}methyl)benzamide] the IC50 [3] was 152 nM.

`COc1cc(C(=O)NCCc2c(C)[nH]c3c(Cl)cc(Cl)cc23)ccc1-n1cnc(C)c1` [Example 51, N-[2-(5,7-dichloro-2-methyl-1H-indol-3-yl)ethyl]-3-methoxy-4-(4-methyl-1H-imidazol-1-yl)benzamide] showed an IC50 [4] of 189 nM.

Work on `COc1cc(C(=O)NCCc2c[nH]c3ccc(Br)cc23)ccc1-n1cnc(C)c1` [Example 52, N-[2-(5-bromo-1H-indol-3-yl)ethyl]-3-methoxy-4-(4-methyl-1H-imidazol-1-yl) benzamide] yielded an IC50 [1] of 251 nM.

In the case of `COc1cc(C(=O)NCc2csc(-c3ccc(Cl)cc3)n2)ccc1-n1cnc(C)c1` [Example 53, N-{[2-(4-chlorophenyl)-1,3-thiazol-4-yl]methyl}-3-methoxy-4-(4-methyl-1H-imidazol-1-yl) benzamide], the IC50 [1] is reported as 306 nM.

In the case of `COc1cc(C(=O)NCc2ccc(F)c(Cl)c2)ccc1-n1cnc(C)c1` [Example 54, N-(3-chloro-4-fluorobenzyl)-3-methoxy-4-(4-methyl-1H-imidazol-1-yl)benzamide], the IC50 [3] is reported as 326 nM.

`COc1cc(C(=O)NCc2cccc(OC(F)(F)F)c2)ccc1-n1cnc(C)c1` [Example 55, 3-methoxy-4-(4-methyl-1H-imidazol-1-yl)-N-[3-(trifluoromethoxy)benzyl]benzamide] was tested, and the IC50 [3] was 332 nM.

For `COc1cc(C(=O)NC(C)COc2c(C)cccc2C)ccc1-n1cnc(C)c1` (stereo not drawn) [Example 56, N-[2-(2,6-dimethyl-phenoxy)-1-methylethyl]-3-methoxy-4-(4-methyl-1H-imidazol-1-yl) benzamide], the IC50 [1] was 337 nM.

Work on `COc1cc(C(=O)NCc2ccc(OC(F)(F)F)cc2)ccc1-n1cnc(C)c1` [Example 57, 3-methoxy-4-(4-methyl-1H-imidazol-1-yl)-N-[4-(trifluoro-methoxy)benzyl] benzamide] yielded an IC50 [1] of 339 nM.

With `COc1cc(C(=O)NCc2sc3c(F)ccc(F)c3c2Cl)ccc1-n1cnc(C)c1` [Example 58, N-[(3-chloro-4,7-difluoro-1-benzothien-2-yl)methyl]-3-methoxy-4-(4-methyl-1H-imidazol-1-yl) benzamide] the IC50 [1] was 346 nM.

Work on `COc1cc(C(=O)NCc2ccc(Cl)cc2C)ccc1-n1cnc(C)c1` [Example 59, N-(4-chloro-2-methylbenzyl)-3-methoxy-4-(4-methyl-1H-imidazol-1-yl) benzamide] yielded an IC50 [1] of 351 nM.

Compound `COc1cc(C(=O)NCc2cccc(Oc3ccccc3)c2)ccc1-n1cnc(C)c1` [Example 60, 3-methoxy-4-(4-methyl-1H-imidazol-1-yl)-N-(3-phenoxybenzyl) benzamide] has an IC50 [1] of 353 nM.

In the case of `COc1cc(C(=O)NCCCCc2ccccc2)ccc1-n1cnc(C)c1` [Example 61, 3-methoxy-4-(4-methyl-1H-imidazol-1-yl)-N-(4-phenyl-butyl)benzamide], the IC50 [3] is reported as 356 nM.

With `COc1cc(C(=O)NCc2cc(F)cc(C(F)(F)F)c2)ccc1-n1cnc(C)c1` [Example 62, N-[3-fluoro-5-(trifluoromethyl)benzyl]-3-methoxy-4-(4-methyl-1H-imidazol-1-yl) benzamide] the IC50 [1] was 369 nM.

`COc1cccc(C[C@@H]2CCC[C@@H]2NC(=O)c2ccc(-n3cnc(C)c3)c(OC)c2)c1` [Example 63, 3-methoxy-N-[(1S,2S)-2-(3-methoxybenzyl)cyclopentyl]-4-(4-methyl-1H-imidazol-1-yl) benzamide] gave an IC50 [1] of 391 nM.

`COc1cc(C(=O)NCCc2ccc(C)c(C)c2)ccc1-n1cnc(C)c1` [Example 64, N-[2-(3,4-dimethyl-phenyl)ethyl]-3-methoxy-4-(4-methyl-1H-imidazol-1-yl)benzamide] was tested, and the IC50 [4] was 395 nM.

For `COc1cccc(C2(CNC(=O)c3ccc(-n4cnc(C)c4)c(OC)c3)CCCC2)c1` [Example 65, 3-methoxy-N-{[1-(3-methoxyphenyl)cyclopentyl]methyl}-4-(4-methyl-1H-imidazol-1-yl) benzamide], the IC50 [1] was 410 nM.

`COc1cc(C(=O)NCc2ccc(F)c(C(F)(F)F)c2)ccc1-n1cnc(C)c1` [Example 66, N-[4-fluoro-3-(trifluoromethyl)benzyl]-3-methoxy-4-(4-methyl-1H-imidazol-1-yl) benzamide] gave an IC50 [1] of 410 nM.

Work on `COc1cc(C(=O)NCc2ccc(Cl)c(Cl)c2)ccc1-n1cnc(C)c1` [Example 67, N-(3,4-dichlorobenzyl)-3-methoxy-4-(4-methyl-1H-imidazol-1-yl) benzamide] yielded an IC50 [1] of 410 nM.

For `COc1cc(C(=O)NCCc2nc3cccc(Cl)c3o2)ccc1-n1cnc(C)c1` [Example 68, N-[2-(7-chloro-1,3-benzoxazol-2-yl)ethyl]-3-methoxy-4-(4-methyl-1H-imidazol-1-yl) benzamide], the IC50 [1] was 418 nM.

With `COc1cc(C(=O)N2CC[C@@H](Oc3ccccc3C(F)(F)F)C2)ccc1-n1cnc(C)c1` [Example 69, 1-[2-methoxy-4-({(3R)-3-[2-(trifluoromethyl)phenoxy]pyrrolidin-1-yl}carbonyl)phenyl]-4-methyl-1H-imidazole] the IC50 [2] was 421 nM.

In the case of `COc1cc(C(=O)NCc2sc3ccccc3c2Cl)ccc1-n1cnc(C)c1` [Example 70, N-[(3-chloro-1-benzothien-2-yl)methyl]-3-methoxy-4-(4-methyl-1H-imidazol-1-yl) benzamide], the IC50 [1] is reported as 425 nM.

`COc1cc(C(=O)NCCc2cc(C)ccc2C)ccc1-n1cnc(C)c1` [Example 71, N-[2-(2,5-dimethylphenyl)ethyl]-3-methoxy-4-(4-methyl-1H-imidazol-1-yl) benzamide] gave an IC50 [1] of 429 nM.

Work on `COc1cc(C(=O)N[C@@H]2CCC[C@@H]2Cc2ccccc2)ccc1-n1cnc(C)c1` [Example 72, N-[(1R,2R)-2-benzylcyclopentyl]-3-methoxy-4-(4-methyl-1H-imidazol-1-yl) benzamide] yielded an IC50 [1] of 442 nM.

With `COc1cc(C(=O)NCCc2c(C)[nH]c3ccc(C)cc23)ccc1-n1cnc(C)c1` [Example 73, N-[2-(2,5-dimethyl-1H-indol-3-yl)ethyl]-3-methoxy-4-(4-methyl-1H-imidazol-1-yl)benzamide] the IC50 [4] was 444 nM.

`COc1cc(C(=O)NCC(C)Oc2ccccc2Cl)ccc1-n1cnc(C)c1` (stereo not drawn) [Example 74, N-[2-(2-chlorophenoxy)propyl]-3-methoxy-4-(4-methyl-1H-imidazol-1-yl)benzamide] gave an IC50 [3] of 466 nM.

Compound `COc1cc(C(=O)NCc2ccccc2OC(F)(F)F)ccc1-n1cnc(C)c1` [Example 75, 3-methoxy-4-(4-methyl-1H-imidazol-1-yl)-N-[2-(trifluoromethoxy)benzyl] benzamide] has an IC50 [1] of 469 nM.
